The record followed here is patent publication US20210137997A1 (priority 2016, published 2021).

Where two headings read alike, the source gives them in different places.

Experiment [1] relates to health-associated type II P. acnes strains. As to the kind of experiment: Extracellular porphyrin production in culture, health-associated type II strains. In kind it is cell-based, Propionibacterium acnes. Here is the method: (§1) P. acnes strains and cultures.
(§2) Extraction, identification, and quantification of extracellular porphyrins. For each strain, porphyrins were extracted using the method described by Kang et al. (Sci Transl Med 7:293ra103 (2015)). Briefly, 500 μL of bacterial culture was extracted in ethyl acetate and acetic acid (4:1, v/v), and solubilized in 1.5M HCl. The absorbance at 405 nm was measured from 200 μL of the soluble phase using a Tecan Genios Spectrophotometer M1000 (Tecan US Inc, Morrisville, N.C.). The standard curve to convert absorbance to concentration was generated using coproporphyrin III standards of known concentration (C654-3, Frontier Sci). Porphyrin levels were measured in P. acnes strain KPA171202 using the quantification method described by Wollenberg et al. (MBio 5:e01286-01214 (2014)). […] Porphyrins were extracted from cultures at stationary phase. […] Bacterial culture density was measured at OD595 for normalization of porphyrin levels. For mass spectrometry experiments, extracted porphyrins were directly injected onto an Agilent 6460 Triple Quad LC/MS system and each strain's m/z in the negative ion mode was identified.
(§3) Statistical analysis for porphyrin production comparisons. The average amount of porphyrins produced by each strain under each culture condition was calculated based on the data from at least three independent experiments, with at least three replicates for each. The porphyrin levels between strains, groups (acne-associated vs. health-associated), and culture conditions (with treatment vs. without treatment) were estimated in a linear mixed effect model, with random intercepts by trial to account for trial effects. P-values for specific comparisons among groups were corrected using Tukey's method. All statistical analysis was performed using R software (version 3.1.3).
(§4) To investigate whether different P. acnes strains produce the same porphyrin species, the types of porphyrins secreted by multiple P. acnes strains where characterized using mass spectrometry. Four acne-associated type IA-2 strains, HL053PA1 (RT4), HL045PA1 (RT4), HL043PA1 (RT5), and HL043PA2 (RT5), and three health-associated type II strains, HL001PA1 (RT2), HL103PA1 (RT2), and HL042PA3 (RT6), were examined (Table 1). No difference in the porphyrin species produced by these P. acnes strains was observed. Coproporphyrin III was the dominant porphyrin isomer produced by all strains ([M+H]^+=655.3). Minimal amounts of coproporphyrin I were also detected. Porphyrin levels are measured with the following method. Bacterial cells are collected, and porphyrins are extracted. The concentration of porphyrins is measured spectrophotometrically and normalized to the optical density (also measured spectrophotometrically). Porphyrin levels are therefore measured per bacterial unit.

Experiment [2] has as its system acne-associated type IA-2 P. acnes strains. In kind it is cell-based, Propionibacterium acnes. Here is the method:
as §1, §2, §3, §4

The next experiment has as its system P. acnes. The conditions noted are these: 0.1 mg/mL LA (range 0.1 to 1.0 mg/mL assessed).
In a further experiment the test system is P. acnes strains. Type of experiment: cell-based, Propionibacterium acnes.
Another experiment has as its system P. acnes strain HL025PA1. The experiment is described as follows: Extracellular porphyrin production in culture, type I strain with deoR. Type of experiment: cell-based, Propionibacterium acnes. The conditions noted are these: 10 μg/mL vitamin B12. Here is the method: as §1
as §2, with “For mass spectrometry experiments, extracted porphyrins were directly injected onto an Agilent 6460 Triple Quad LC/MS system and each strain's m/z in the negative ion mode was identified.” left out
Statistical analysis for porphyrin production comparisons. The average amount of porphyrins produced by each strain under each culture condition was calculated based on the data from at least three independent experiments, with at least three replicates for each. […]

Experiment [3] has as its system cbiL (vitamin B12 biosynthesis gene) in HL025PA1. The experiment is described as follows: cbiL gene expression by qRT-PCR, HL025PA1. In kind it is cell-based, Propionibacterium acnes. The conditions noted are these: 10 μg/mL vitamin B12. The procedure:
(§5) RNA extraction and cDNA synthesis. For cbiL and deoR gene expression analysis, cells were lysed with bead beating. Total RNA was extracted using the standard phenol-chloroform method and purified using RNeasy kit (Qiagen). DNA was removed using the Turbo DNA-free kit (Life Technologies). RNA quality was assessed using gel electrophoresis. Single-stranded complementary DNA (cDNA) was synthesized using SuperScript III First-Strand Synthesis SuperMix (Life Technologies).
(§6) Analysis of cbiL gene expression. qRT-PCR was performed using the LightCycler 480 High Resolution Melting Master Mix (Roche) on a LightCycler 480 (Roche) with the following primers: cbiL-forward, 5′-[…]-3′ (SEQ ID NO: 1), and cbiL-reverse, 5′-[…]-3′ (SEQ ID NO: 2). The following qRT-PCR protocol was used: initial denaturation at 95° C. for 5 min, followed by 50 cycles of 95° C. for 10 sec, 62° C. for 30 sec, and 72° C. for 30 sec. The fold change in cbiL gene expression between cultures with vitamin B12 supplementation and cultures without supplementation was calculated. The gene expression level of cbiL in each sample was normalized against the 16S rRNA transcript level. Melting curve analysis was performed using the Light Cycler 480 software Version 1.5 (Roche) to verify the specificity of the amplified products based on their melting temperatures. All reactions were run in triplicate.
On the technique in general: Real-time PCR tracks product formation cycle by cycle.

The subject of experiment [4] is cbiL (vitamin B12 biosynthesis gene) in health-associated type II strains. The experiment is described as follows: cbiL gene expression by qRT-PCR, type II strains. Type of experiment: cell-based, Propionibacterium acnes. The settings on record: 10 μg/mL vitamin B12 vs without, normalized to 16S rRNA. The procedure:
as §5, §6

Experiment [5] relates to cbiL (vitamin B12 biosynthesis gene) in acne-associated type IA-2 strains. As to the kind of experiment: cbiL gene expression by qRT-PCR, type IA-2 strains. In kind it is cell-based, Propionibacterium acnes. The settings on record: 10 μg/mL vitamin B12 vs without, normalized to 16S rRNA. The procedure: as §5, §6

Turning to `NCC(=O)CCC(=O)O` [5-ALA, 5-aminolevulinic acid], the “average fold increase in porphyrin production” value in experiment [1] (0.1 mg/mL 5-ALA only vs untreated controls, P≤0.06 except HL001PA1) turned out to be 3.4 fold; in experiment [2] (0.1 mg/mL 5-ALA only vs untreated controls, P<0.0001), 2.2 fold.
For the molecule `CC(=O)CCC(=O)O` [LA, levulinic acid], the “effect on bacterial growth” value in the experiment on P. acnes is on record as “did not significantly affect the bacterial growth”. In addition, the “average reduction of porphyrin production compared to untreated cultures” value in the experiment on P. acnes strains turned out to be 30%. The “reduction of porphyrins by LA in combination with vitamin B12” value in experiment [2] was “no significant reduction of porphyrins”.
vitamin B12: the “average porphyrin level with vitamin B12 supplementation” value was 1.1 µM in experiment [1] (10 μg/mL vitamin B12, 1.1 μM without, P≥0.77) and 9.2 µM in experiment [2] (10 μg/mL vitamin B12, increasing from 6.5 μM without). Further, the “further enhancement of porphyrin production compared to substrate only” value in experiment [1] (10 μg/mL vitamin B12 in combination with 0.1 mg/mL 5-ALA, P≥0.94) is “not in health-associated type II strains”. In experiment [1] (0.1 mg/mL LA with 10 μg/mL vitamin B12), the “counteraction by vitamin B12 of the inhibition of porphyrin biosynthesis by LA” value is “not in health-associated type II strains”. Besides, the “effect of vitamin B12 on porphyrin production level” value in experiment [1] (strains HL110PA3, HL106PA1, HL050PA2, 10 μg/mL) was “not significantly affected”. In addition, the “effect of vitamin B12 on porphyrin production” value in the experiment on P. acnes strain HL025PA1 is “unaffected”. The “effect on vitamin B12 biosynthesis gene expression” value in experiment [3] is “transcriptional repression”. Moreover, the “average fold change of cbiL gene expression” value in experiment [4] came out at 0.24 fold; in experiment [5] it was 0.74 fold. Further, the “response of porphyrin production to vitamin B12 supplementation” value in the experiment with P. acnes strains (type I strains, FIG. 12) is reported as “increased porphyrin production”; with P. acnes strains (type II and type III strains, data not shown), “not observed”. Also, in experiment [2] (10 μg/mL vitamin B12 in combination with 0.1 mg/mL 5-ALA), the “fold increase in porphyrin production compared to substrate only” value is 2.7 fold.
